Source: ChEMBL document CHEMBL4495565, “Cytopathic SARS-Cov2 screening on VERO-E6 cells in a large repurposing effort” (2020)
pIC50: −log10 of the molar value. “And” between values parts separate entries of the source, which are not always exact repeats. Equal values may be shown once. Where a name gives a salt, the structure may show the parent alone. Peptide text beside a SMILES is read from it. * marks the point of attachment. Cbz = O=C(OCc1ccccc1)*

Columns and labels:
SARS-CoV-2 [1] = assay: microbe, parasite or virus in culture; assay type: functional, organism-based, Chlorocebus sabaeus, Vero C1008
Vero C1008 = conditions: chlorocebus sabaeus, vero c1008, 48 h
in vitro [2] = conditions: chlorocebus sabaeus, VERO-E6 cells (Vero C1008), uninfected, CC50
SARS-CoV-2 [3] = conditions: Chlorocebus sabaeus; Vero C1008; 10 uM
in vitro [4] = conditions: chlorocebus sabaeus, VERO-E6 cells, Selectivity index
[5] = Severe acute respiratory syndrome coronavirus 2, Vero C1008, 48 h

Row | Compound | CC50 (Vero C1008) | inhibition (SARS-CoV-2 [3]) | also measured
1 | COc1cc2c(NC3CCN(C4CCCCC4)CC3)nc(N3CCCN(C(C)C)CC3)nc2cc1OCCCN1CCCCC1 | 18.6 µM | – | pIC50 (SARS-CoV-2 [1]; vero c1008): < 4.48; CC50 at 48 h (in vitro [2]): > 33 µM
2 | TOCOFERSOLAN | – | 41.8% | –
3 | CC(=O)[C@]1(O)Cc2c(O)c3c(c(O)c2[C@@H](O[C@H]2C[C@H](N)[C@H](O)[C@H](C)O2)C1)C(=O)c1ccccc1C3=O [IDARUBICIN HYDROCHLORIDE] | 0.41 µM | – | –
4 | Nc1nc2nn[nH]c2c(=O)[nH]1 [8-AZAGUANINE] | 11.2 µM | – | pIC50 (SARS-CoV-2 [1]; vero c1008): 5.43 and 4.99; CC50 at 48 h (in vitro [2]): 10.4 µM
5 | MERBROMIN | – | 0% | –
6 | GADOTERIDOL | – | -0.08% | –
7 | VANADATE ION | – | 0.02% | –
8 | hemin | – | -0.12% | –
9 | ESCIN | – | -0.23% | –
10 | CC(=O)[C@]1(O)Cc2c(O)c3c(c(O)c2[C@@H](O[C@H]2C[C@H](N)[C@H](O)[C@H](C)O2)C1)C(=O)c1ccccc1C3=O [IDARUBICIN] | 0.2 µM | – | –
11 | COc1ccc(-c2cc3c(C)nc(N)nc3n([C@H]3CC[C@H](OCCO)CC3)c2=O)cn1 [PF-04691502] | 0.32 µM and 0.09 µM | – | pIC50 (SARS-CoV-2 [1]; [5]): 6.26; pIC50 (SARS-CoV-2 [1]; vero c1008): 6.10
12 | O=C(c1c2ccccc2cc2ccccc12)N1CCC(N2CCC[C@@H](C(=O)N3CCOCC3)C2)CC1 | 10.9 µM | – | CC50 at 48 h (in vitro [2]): 10.2 µM
13 | NYSTATIN | – | 0.08% | –
14 | CC(=O)OC[C@]12CCC(C)=C[C@H]1O[C@@H]1[C@H](O)[C@@H](OC(C)=O)[C@@]2(C)[C@@]12CO2 | – | -0.2% | –
15 | CNCc1ccc(-c2cc(-c3nc(-c4ccc(S(=O)(=O)C(C)C)cc4)cnc3N)on2)cc1 [BERZOSERTIB] | 10 µM and > 33 µM | – | pIC50 (SARS-CoV-2 [1]; vero c1008): 5.45
16 | PHENYLMERCURIC ACETATE | – | -0.23% | –

Row | Compound | CC50 (Vero C1008) | inhibition (SARS-CoV-2 [3]) | also measured
17 | CC(C)(C)c1cc(C=C(C#N)C#N)cc(C(C)(C)C)c1O [TYRPHOSTIN A9] | 7.99 µM and 1.27 µM | – | pIC50 (SARS-CoV-2 [1]; vero c1008): < 4.48
18 | CYANOCOBALAMIN | – | 0.04% | –
19 | VITAMIN E | – | 0.25% (2×) and -0.04% (2×) | –
20 | CC(C)C[C@@H](C=O)NC(=O)[C@H](CC(C)C)NC(=O)[C@H](CC(C)C)NC(=O)OCc1ccccc1 [MG-132] (Cbz-Leu-Leu-Leu-aldehyde) | 3.04 µM | – | pIC50 (SARS-CoV-2 [1]; vero c1008): 6.00; CC50 at 48 h (in vitro [2]): 2.9 µM
21 | Vitamin B12 | – | 0.12% | –
22 | Sodium orthovanadate | – | 0.13% | –
23 | ACRIFLAVINE HYDROCHLORIDE | – | -0.35% | –
24 | CETRIMONIUM BROMIDE | – | 0.3% | –
25 | Cc1cc(Nc2cc(N3CCN(C)CC3)nc(Sc3ccc(NC(=O)C4CC4)cc3)n2)n[nH]1 | – | 0.28% | –
26 | Auranofin | – | -0.39% | –
27 | AUROTHIOGLUCOSE | – | -0.05% | –
28 | N[C@H]1CC[C@H](N[C@@H]2C[C@H]2c2ccccc2)CC1 | – | – | pIC50 (SARS-CoV-2 [1]; [5]): < 4.48; CC50 at 48 h (in vitro [2]): > 33 µM; selectivity ratio (in vitro [4]): 1
29 | COLISTIMETHATE SODIUM | – | -0.25% | –
30 | CNC(=O)c1cc(Oc2ccc(NC(=O)Nc3ccc(Cl)c(C(F)(F)F)c3)c(F)c2)ccn1 [REGORAFENIB] | > 33 µM and 8.31 µM | – | pIC50 (SARS-CoV-2 [1]; [5]): < 4.48; pIC50 (SARS-CoV-2 [1]; vero c1008): 4.60
31 | Nc1ncnc2c1c(-c1cnc3[nH]ccc3c1)nn2C1CCCC1 | – | – | pIC50 (SARS-CoV-2 [1]; [5]): 4.93; CC50 at 48 h (in vitro [2]): 8.95 µM; selectivity ratio (in vitro [4]): 0.76
